These results are taken from patent US9758401B2, “Digestion of biosolids in wastewater” (BCR ENVIRONMENTAL CORPORATION, priority 2009, dated 2017).

The subject of assay [1] is Waste activated sludge (WAS). The assay is described as follows: Waste activated sludge solubilization by chlorine dioxide in digesters (soluble COD, NH4, PO4, volatile solids). As for the experimental part: Waste activated sludge (WAS) was obtained from a local municipal WWTP which removes cBOD only and uses a pure oxygen system. In order to achieve similar experiment conditions and be consistent with the previous pilot experiment, the solids concentration was adjusted to approximately 7 g/L. Three digesters were set up and treated with chlorine dioxide dosages of 100, 150 and 200 mg/L respectively. The digesters were operated for 24 hours. Samples were taken at time intervals of 10 min, 1 h, 6 h, 12 h and 24 h to represent different contact time.
This confirmed that chlorine dioxide contact time is the key factor for WAS solubilization. The increased soluble COD concentration can be expressed as 10-11% of TCOD which is quite significant. It was also observed that soluble COD concentration at contacting time of 6 hr was approximately 55-66% of the soluble COD at time 24 hrs. […] The increase of soluble COD corresponded to the volatile solids destruction of 4-6% with different chlorine dioxide treatment dosage.
This is considered insignificant. The PO4 increase was much higher and equaled 16 to 28.3 mg P/L after 24 h. Higher phosphorus than nitrogen release can be attributed to the chlorine dioxide treatment which breaks down the cell walls resulting in the release of unbound orthophosphate PO4—P. The nitrogen in the cells is in the form of organic nitrogen (amino acids) and enzymes are required to convert organic nitrogen to ammonia nitrogen. The low pH resulting from the chlorine dioxide treatment may have deactivated the enzyme activity, therefore no/insignificant NH4—N increase was detected.

The subject of assay [2] is anaerobic digester. The assay is described as follows: Methane production in anaerobic digestion of chlorine dioxide pretreated WAS. The following applies: versus non-pretreated WAS, measured. Here is the method: Treatment of non-digested wastewater sludge with chlorine dioxide to solubilized the sludge and make nutrients bio-available and then feeding this material into an established anaerobic digester once the chlorine dioxide residual has been reduced improves gas (methane) production in an anaerobic digester. A generally accepted estimate for methane production at 35° C. is 0.25 kg methane per kg COD consumed. One kmol of methane is equivalent with a mass of 16 kg. Per definition, the COD equivalent of 1 kmol of methane is the mass of the amount of oxygen required for complete oxidation according to the formula: CH4+2O2→CO2+2H2O The mass of the 2O2 is 2 kmol of oxygen or 64 kg. Thus 64 kg Oxygen Demand is equivalent with 16 kg of methane, or 1 kg of oxygen demand (COD) is equivalent with 16/64=0.25 kg methane.
This increase in soluble COD represents 10-11% of the total COD concentration of the sludge, and represents a 2000% increase in soluble COD. The inventors believe that the higher the s-COD the higher capacity for methane production. The resulting increase in methane production as a result of this enhancement of anaerobic digestion has been measured as a greater than 50% increase utilizing this method, and is expected to be in the range of 100% or more over non-pretreated WAS. […]

Assay [3] deals with fecal coliform. The experiment in a line: Secondary sludge full-scale test: fecal coliform reduction by chlorine dioxide. Particulars: for Fecal coliform: secondary sludge, 10 minutes contact time. The assay is classed as cell-based. Here is the method:
Treatment of non-digested wastewater sludge with chlorine dioxide allows the material to meet Class B pathogen reduction requirements prior to digestion by reducing the fecal coliform concentrations to levels much lower than the Class B standard (<2,000,000 fecal coliform bacteria) with less than 15 minutes contact time. The resulting biosolids cake has no odor.
In this test, chlorine dioxide was generated on-site, and was injected (at varying concentrations) into a 100 gpm sludge flow passing through a 4 inch diameter pipe. The pipe length was sufficient to allow 10 minutes of contact time between the sludge and the chlorine dioxide prior to dewatering the material.

Where [4] appears, read: chlorine dioxide 100-200 mg/L, 24 h.

A value given as a limit tells only on which side of the number the result lay.

On to `[O][Cl+][O-]` [chlorine dioxide], for which the “soluble COD at contact time 6 hr as share of soluble COD at 24 hrs” value in assay [1] (chlorine dioxide 100-200 mg/L) is 55-66%. Moreover, the “increase in soluble COD” value in assay [1] (setting [4]) was determined as 2000%. Besides, the “increase in soluble COD as share of total COD (TCOD)” value in assay [1] (setting [4]) was 10-11%. Besides, the volatile solids destruction in assay [1] (different chlorine dioxide treatment dosage (100-200 mg/L)) is on record as 4-6%. Moreover, the “increase in methane production” value in assay [2] is listed as “greater than 50%”. Also, the “fecal coliform concentrations after treatment (Class B standard)” value in assay [3] (non-digested wastewater sludge, less than 15 minutes contact time) was < 2,000,000 fecal coliform bacteria. For the same compound, the Fecal coliform is 1,800 MPN/g in assay [3] (ClO2 dose rate 64 mg/L); “BDL” in assay [3] (ClO2 dose rate 80 mg/L); “BDL” in assay [3] (ClO2 dose rate 96 mg/L); “BDL” in assay [3] (ClO2 dose rate 128 mg/L); “BDL*” in assay [3] (ClO2 dose rate 160 mg/L).
